Tests used:
[1] = tested on: primary mammary tumors of MDA231 sublines; assay: Orthotopic primary mammary tumor xenograft; conditions: mouse, in vivo
Description: For bone metastsis studies, 10^5 tumor cells were injected into the left cardiac ventricle of anesthetized female athymic Ncr-nu/nu or BALB/c mice. Development of metastases was monitored by BLI. Bioluminescence images were acquired with a Xenogen IVIS 200 Imaging System. Analysis was performed with Living Image software by measuring photon flux in the hindlimbs of mice. Data were normalized to the signal on day 7. Bone metastasis-free survival curves represent the time point at which each mouse developed bone metastasis by threshold BLI signals in the hindlimbs. For the orthotopic xenograft model, mammary fat pad injections and primary tumor size measurements were performed following the procedure described previously (Minn et al., 2005, which is incorporated herein by reference as if fully set forth).
MRK-003 is a potent and specific gamma-secretase inhibitor whose biochemical, cellular and pharmacological properties have been extensively studied and reported. MRK-003 is a cyclic sulfamide with sub-nanomolar potency inhibiting gamma-secretase-mediated cleavage of Notch to its active form (NICD) (Lewis et al., 2007, which is incorporated herein by reference as if fully set forth). […] For xenograft experiments, mice were administered the vehicle (0.5% methylcellulose) or MRK-003 by oral gavage twice a week at a 100 mg/kg dosage. The dosing schedule was 2-days on, 5-days off. […]

[2] = tested on: pre-osteoclast Raw 264.7 cells; assay: Osteoclastogenesis coculture assay (TRAP staining); format: cell-based, mouse
Description: After seeding 5×10^4 control or JAG1 OE tumor cells/well into 12-well plates, murine pre-osteoclast Raw 264.7 (2×10^5 cells/well) or MOCP5 (5×10^5 cells/well) cells in media containing 30 ng/ml RANKL and DMSO or 1 μM MRK-003 were added the next day. Media were changed every 2 days. TRAP staining was performed on day 6 using a leukocyte acid phosphatase kit (Sigma). TRAP^+-multinucleated cells were scored as mature osteoclasts. The number of nuclei per osteoclast was quantified using TRAP-stained images. Mouse specific qRT-PCR primers were used to selectively quantify Raw264.7 osteoclast gene expression levels after 6 days of coculture (see Table 1 below).
For primary osteoclast coculture assays, bone marrow cells were flushed out from femora and tibiae of 4- to 6-week-old wild-type FVB mice and plated in basal culture medium overnight. The next day, nonadherent cells were added at 1×10^6/well to 12-well plates that were previously seeded with either control or JAG1 OE tumor cells supplemented with 50 ng/ml RANKL and 50 ng/ml M-CSF. Medium was changed every 3 days. TRAP staining and scoring were performed on days 10-12.

[3] = tested on: Notch; conditions: cited from earlier work
[4] = tested on: gamma-secretase; conditions: Lewis et al., 2007; cited from earlier work

Structure (SMILES): O=S1(=O)N[C@@]2(CN1CC(F)(F)F)[C@@H]1CC[C@H]2Cc2ccc(/C=C/CN3CCC(C(F)(F)F)CC3)cc2C1 [MRK-003]
- growth rate of primary mammary tumors [1]: not altered
- primary tumor xenografts of MDA231 sublines, control vs treated [1]: no difference
- TRAP+ osteoclasts in JAG1 OE cocultures ([2]; 15-fold increase by JAG1 OE relative to controls, 1 μM MRK-003, FIG. 15A): essentially abolished
- mRNA expression of osteoclast differentiation markers in Raw 264.7 cells ([2]; JAG1 OE cocultures): suppressed
- osteoclast size and number of nuclei ([2]; cocultures with Raw 264.7, FIG. 15C): smaller osteoclasts with fewer nuclei
- Acp5 (mouse gene encoding TRAP) mRNA levels, delayed initiation of treatment (Late) ([2]; treatment 2 days after seeding, FIG. 15B): failed to fully rescue
- efficacy with intermittent exposure in mice ([3]; Tammam et al., 2009): robust efficacy
- intestinal effect resulting from Notch inhibition ([3]; recovery during dosing holiday): transient intestinal metaplasia (goblet cell induction)
- potency inhibiting gamma-secretase-mediated cleavage of Notch to NICD [4]: sub-nanomolar

— US20150329918A1, “JAGGED1 AS A MARKER AND THERAPEUTIC TARGET FOR BREAST CANCER BONE METASTASIS” (The Trustees of Princeton University, priority 2011, published 2015)
